Test results published in patent US10966993B2, “Pharmaceutical composition comprising a sulfonylurea drug and preparation method thereof” (JIANGSU AOSAIKANG PHARMACEUTICAL CO., LTD., priority 2016, dated 2021).

How the values were obtained:
[1] = background statement; cited from earlier work
MCAO rats [2] = assay: Neurobehavioral scoring (Longa) in rat MCAO models; format: in vivo, Sprague-Dawley (SD) rat; details: for Neurobehavioral score (Longa Scoring, 0-4): n=8, glibenclamide 10 μg/kg ip at ischemia 4 h + 200 ng/h sc for 44 hours
Description: (§1) 7.2 Experiment Animals: Male Sprague-Dawley (SD) rat, clean grade, weighing at 200˜230 g. The temperature of animal feeding room was maintained at 20˜24° C., the humidity was maintained at 30˜70%; a cycle of lighting on 12 hours/lighting off 12 hours (06:00 AM on, 18:00 PM off) every day was employed. During the experiment, the animals were feed separately, and had free access to water and food.
The test drugs in group GB was formulated as follows: glibenclamide was dissolved in a little DMSO (dimethyl sulfoxide), the resulting solution was diluted to a DMSO concentration of 5 vol % with physiological saline, and the pH of the solution was adjusted to 8˜8.5 with NaOH. By means of the above process, solutions with glibenclamide concentration of 200 μg/ml and 10 μg/ml were respectively formulated.
The test drugs in group H-GB was formulated as follows: Taking the lyophilized product of Example 13, into which was added an appropriate amount of physiological saline and respectively formulated into a solution with a glibenclamide concentration of […].
Rats were rested for about 1 week before the experiment started. On the day of the experiment, the surgical tools were sterilized by autoclaving. The rats were anesthetized by intraperitoneally injecting chloral hydrate (330 mg/kg). The common carotid artery and external carotid artery of the rats were separated, and a sterilized MCAO monofilament was used to insert into the internal carotid artery through the opening of the external carotid artery to a depth of about 18 mm, until the head of the monofilament reached the starting part of the middle cerebral artery, the opening of the external carotid artery was ligatured to fix the monofilament. […] The blood flow in the brain was monitored with a laser Doppler (Model moorVMS-LDF2, Manufacturer moor) respectively pre-operation, post-operation and immediately after reperfusion, and the molding in which the ratio of the postoperative blood flow to the preoperative blood flow was less than 30% was regarded as a qualified molding. […]

MCAO rats [3] = assay: Area and swelling degree of cerebral infarction in rat MCAO models; format: in vivo, Sprague-Dawley (SD) rat; details: n=8, glibenclamide 10 μg/kg ip at ischemia 4 h + 200 ng/h sc for 44 hours, after ischemia for 48 hours
Description: as §1
The test drugs in group GB was formulated as follows: glibenclamide was dissolved in a little DMSO (dimethyl sulfoxide), the resulting solution was diluted to a DMSO concentration of 5 vol % with physiological saline, and the pH of the solution was adjusted to 8˜8.5 with NaOH. […]
Rats were rested for about 1 week before the experiment started. […] The blood flow in the brain was monitored with a laser Doppler (Model moorVMS-LDF2, Manufacturer moor) respectively pre-operation, post-operation and immediately after reperfusion, and the molding in which the ratio of the postoperative blood flow to the preoperative blood flow was less than 30% was regarded as a qualified molding. […]
After ischemia for 48 hours, the brain was taken and put into a brain slicer to slice coronal sections through the brain (2 mm each piece), stained at dark with 1% TTC for 15 min at 37° C., and analyzed for the area of infarction after taking a photograph. […]

SMILES: COc1ccc(Cl)cc1C(=O)NCCc1ccc(S(=O)(=O)NC(=O)NC2CCCCC2)cc1 [glibenclamide, 5-chloro-N-(4-[N-(cyclohexylcarbamoyl)aminosulfonyl]phenethyl)-2-methoxybenzamide]
- water solubility [1]: less than 5 μg/ml
- neurobehavioral scores compared with the control (in words) (MCAO rats [2]; at 24 h, 48 h): declines
- Neurobehavioral score (Longa Scoring, 0-4) (MCAO rats [2]; scored at ischemia 24 h): 1.75 ± 0.25
- Neurobehavioral score (Longa Scoring, 0-4) (MCAO rats [2]; scored at ischemia 48 h): 2.00 ± 0.19
- Swelling degree (area of infarction side hemisphere / non-infarction side hemisphere) (MCAO rats [3]): 1.31 ± 0.04
